#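 Following 48 hours of exposure in 96-well plates, responses at five concentrations were used to interpolate endpoints linearly. The concentration for 50% growth inhibition is given as GI50.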 The source made the active and inactive calls. Rule as the data show it: active = GI50 up to about 1.1 µM and inactive = higher.
# Tests used:
# Test in all cases: DTP human tumour cell line panel, 48 h
# IGROV-1 = system: IGROV-1
# ACHN = system: ACHN
# NCI-H460 = system: NCI-H460
# EKVX = system: EKVX
# T47D = system: T47D
# DU-145 = system: DU-145
# MDA-MB-231 = system: MDA-MB-231
# TK-10 = system: TK-10
# MOLT-4 = system: MOLT-4
# CCRF-CEM = system: CCRF-CEM
# UACC-257 = system: UACC-257
# HCT-15 = system: HCT-15
# MDA-N = system: MDA-N
# SK-MEL-2 = system: SK-MEL-2
# SK-MEL-5 = system: SK-MEL-5
# K562 = system: K562
# COLO 205 = system: COLO 205
# BT-549 = system: BT-549
# PC-3 = system: PC-3
# SR = system: SR
Structure (SMILES),GI50 (IGROV-1),GI50 (ACHN),GI50 (NCI-H460),GI50 (EKVX),GI50 (T47D),GI50 (DU-145),GI50 (MDA-MB-231),GI50 (TK-10),GI50 (MOLT-4),GI50 (CCRF-CEM),GI50 (UACC-257),GI50 (HCT-15),GI50 (MDA-N),GI50 (SK-MEL-2),GI50 (SK-MEL-5),GI50 (K562),GI50 (COLO 205),GI50 (BT-549),GI50 (PC-3),GI50 (SR)
Cc1ccsc1C(=S)Nc1ccc(Cl)c(C(=O)OC(C(C)C)C(C)C)c1,32.3 µM (inactive),25.9 µM (inactive),23.7 µM (inactive),23.2 µM (inactive),6.9 µM (inactive),33 µM (inactive),17.2 µM (inactive),38.1 µM (inactive),5.51 µM (inactive),5.62 µM (inactive),28.4 µM (inactive),23.6 µM,23.6 µM (inactive),11.7 µM (inactive),15.4 µM (inactive),3.97 µM (inactive),12.9 µM (inactive),3.38 µM (inactive),8.53 µM (inactive),–
CN(C)CCCN1c2ccccc2CCc2cc([N+](=O)[O-])ccc21,20.3 µM (inactive),29.4 µM (inactive),20 µM (inactive),33.9 µM (inactive),18.7 µM (inactive),24.4 µM (inactive),22.2 µM (inactive),28.5 µM (inactive),26.2 µM (inactive),–,20.1 µM (inactive),34.4 µM,19.6 µM (inactive),21.1 µM (inactive),15.8 µM (inactive),27.2 µM (inactive),21 µM (inactive),22.4 µM (inactive),25.4 µM (inactive),32.1 µM (inactive)
CC(C)(CC(O)C#N)/[N+]([O-])=[N+](\[O-])C(C)(C)CC(O)C#N (stereo not given),21.2 µM (inactive),23.2 µM (inactive),36.1 µM (inactive),32.6 µM (inactive),27.5 µM (inactive),30.5 µM (inactive),23.9 µM (inactive),26.7 µM (inactive),10.3 µM (inactive),–,20.4 µM (inactive),15.2 µM,20.7 µM (inactive),43 µM (inactive),29.2 µM (inactive),14.4 µM (inactive),14.8 µM (inactive),20.6 µM (inactive),28.2 µM (inactive),15.2 µM (inactive)
NNS(=O)(=O)c1ccc(/C=C2\NC(=O)NC2=O)cc1,> 100 µM (inactive),> 100 µM (inactive),–,> 100 µM (inactive),> 100 µM (inactive),> 100 µM (inactive),> 100 µM (inactive),> 100 µM (inactive),> 100 µM (inactive),> 100 µM (inactive),> 100 µM (inactive),> 100 µM,> 100 µM (inactive),37.9 µM (inactive),> 100 µM (inactive),> 100 µM (inactive),> 100 µM (inactive),> 100 µM (inactive),> 100 µM (inactive),–
CCOC(=O)c1cc2c3c(c(C(C)=O)c(OC)c2[nH]1)N(C(=O)CC)CC3,13.6 µM (inactive),–,16.7 µM (inactive),11.4 µM (inactive),4.93 µM (inactive),15.6 µM (inactive),4.25 µM (inactive),–,4.05 µM (inactive),13.7 µM (inactive),19.4 µM (inactive),16.5 µM,16.8 µM (inactive),22.3 µM (inactive),10.9 µM (inactive),14.1 µM (inactive),18.2 µM (inactive),17.3 µM (inactive),23.3 µM (inactive),–
CC1CNC(c2ccc(CN3CCC(C4CCN(Cc5ccc(C6=NC(C)CN6)cc5)CC4)CC3)cc2)=N1 (stereo not given),37.2 µM (inactive),26.5 µM (inactive),18.5 µM (inactive),21.7 µM (inactive),19.5 µM (inactive),16.2 µM (inactive),17.7 µM (inactive),22.4 µM (inactive),19.7 µM (inactive),13.9 µM (inactive),24.2 µM (inactive),27.5 µM,21.3 µM (inactive),19.1 µM (inactive),36.2 µM (inactive),16.7 µM (inactive),18.6 µM (inactive),> 100 µM (inactive),17.7 µM (inactive),–
C=CCSC1=N/C(=C\c2cccs2)C(=O)N1CC=C,> 100 µM (inactive),54.6 µM (inactive),61.9 µM (inactive),19.2 µM (inactive),15.4 µM (inactive),79.3 µM (inactive),83.4 µM (inactive),> 100 µM (inactive),18.7 µM (inactive),–,49.8 µM (inactive),66.1 µM,42.9 µM (inactive),> 100 µM (inactive),32.3 µM (inactive),29.4 µM (inactive),56.2 µM (inactive),44.4 µM (inactive),33.7 µM (inactive),32.5 µM (inactive)
CC(C)C(=O)CC(Sc1ccc(N)cc1)c1ccccc1 (stereo not given),44.1 µM (inactive),20 µM (inactive),23.2 µM (inactive),–,21.9 µM (inactive),25.4 µM (inactive),22.3 µM (inactive),69.8 µM (inactive),25.1 µM (inactive),17.1 µM (inactive),33.6 µM (inactive),27.4 µM,16 µM (inactive),23.3 µM (inactive),20.4 µM (inactive),25.4 µM (inactive),33.2 µM (inactive),33.7 µM (inactive),35.4 µM (inactive),–
CC[C@H]1C=CCC[C@@]2(C[C@@H]3CC[C@@H]4[C@H](C(=O)OCCCCCCCCCCCCCCCC(=O)N(CCCN)C[C@@H](O)CCN)[C@]5(CCC[C@@H](C)O5)NC(=[N+]34)N2)O1,0.239 µM (active),0.349 µM (active),0.443 µM (active),0.897 µM (active),0.824 µM (active),0.731 µM (active),0.748 µM (active),1.44 µM (inactive),0.0869 µM (active),–,0.122 µM (active),0.41 µM,0.127 µM (active),0.229 µM (active),0.0407 µM (active),0.236 µM (active),0.316 µM (active),0.807 µM (active),0.385 µM (active),0.0802 µM (active)
O=C(c1ccccc1Cl)n1oc2ccccc2c1=O,69.2 µM (inactive),> 100 µM (inactive),> 100 µM (inactive),> 100 µM (inactive),> 100 µM (inactive),> 100 µM (inactive),> 100 µM (inactive),> 100 µM (inactive),22.8 µM (inactive),27.5 µM (inactive),86.7 µM (inactive),85.5 µM,> 100 µM (inactive),> 100 µM (inactive),82.4 µM (inactive),7.62 µM (inactive),35.7 µM (inactive),84.5 µM (inactive),> 100 µM (inactive),–
CC(=O)NC1C(OCC(=O)NC(C)C(=O)NC(CCC(=O)NCCCCCNc2ccc([N+](=O)[O-])c3[nH]c4ccccc4c(=O)c23)C(N)=O)C(O)C(CO)OC1(C)OCc1ccccc1 (stereo not given),> 50 µM (inactive),31.6 µM (inactive),18.4 µM (inactive),> 50 µM (inactive),> 50 µM (inactive),> 50 µM (inactive),12 µM (inactive),24 µM (inactive),13.3 µM (inactive),3.75 µM (inactive),> 50 µM (inactive),> 50 µM,> 50 µM (inactive),> 50 µM (inactive),> 50 µM (inactive),4.5 µM (inactive),> 50 µM (inactive),> 50 µM (inactive),> 50 µM (inactive),–

# Source: ChEMBL document CHEMBL1201862, “PubChem BioAssay data set” (2004)
